Like-named read-outs stand apart in the source and are kept apart here.
Columns and labels:
[1] = tested on: soybean cyst nematode; test: 1998 field trial (Waseca): SCN population, fungal parasitism, soybean growth; type: in vivo, Heterodera glycines
Method: (§1) A field experiment was conducted at one site in Waseca in 1998. Fungi used in this study included three species of egg-parasitic fungi, Verticillium chlamydosporium from Florida, ARF18 from Arkansas, and Cylindrocarpon destructans from Minnesota, and two species of juvenile-parasitic fungi, Hirsutella rhossiliensis and Hirsutella minnesotensis from Minnesota. The fungi were cultured on corn-grits, applied in furrow and mixed into soil. Additionally, aldicarb (nematicide) and lorsban (insecticide) were included for a comparison purpose. Plots applied with fungal culture medium, without addition of the culture medium, and plots with a resistant cultivar Pioneer 9234 were included as controls. Each plot consisted of two rows with row spacing of 30 inches and row length of 15 feet. The plots were separated by four rows without application of agents. Four replicates were used. Nematode egg density at planting, and egg density and juvenile density 2 months after planting and at harvest were determined. […] Levels of fungal parasitism of nematode eggs and juveniles were measured 2 months after planting and at harvest.

[2] = tested on: Heterodera glycines; type: in vivo
Method: as §1
Other procedures applied in 2000 were the same as used in 1999.

[3] = tested on: Hirsutella rhossiliensis; conditions: for Growth rate mm-in-diam, on agar: named vitamin excluded from medium with all other vitamins; for Growth rate mm-in-diam, on agar / Sporulation 10^3/cm^2, on agar / growth in liquit culture (visual rating): 5 weeks; for Spore germination %, on agar / Sporulation 10^3/cm^2, on agar / growth in liquit culture (visual rating): named vitamin excluded

For `CNC(=O)O/N=C/C(C)(C)SC` [Aldicarb, aldicarb], the “% J2 parasitized, End season” value ([1]; in vivo) was 4%, the “% J2 parasitized, Midseason” value ([1]; in vivo) was 0% and the “Egg population, At planting, Eggs/100 cm^3 soil” value ([1]; in vivo) was 772 Eggs/100 cm^3 soil. The “Egg population, End season, % Reduction” value ([1]; in vivo) was 64%, the “Egg population, End season, Eggs/100 cm^3 soil” value ([1]; in vivo) was 4,788 Eggs/100 cm^3 soil and the “Egg population, Midseason, % Reduction” value ([1]; in vivo) was 58%. The “Egg population, Midseason, Eggs/100 cm^3 soil” value ([1]; in vivo) was 1,200 Eggs/100 cm^3 soil, the “Juvenile (J2) population, End season, % Reduction” value ([1]; in vivo) was 66% and the “Juvenile (J2) population, End season, J2/100 cm^3 soil” value ([1]; in vivo) was 98. For the same molecule, the “Juvenile (J2) population, Midseason, % Reduction” value ([1]; in vivo) was 54%, the “Juvenile (J2) population, Midseason, J2/100 cm^3 soil” value ([1]; in vivo) was 129 and the “Plant growth: Emergence rate (%)” value ([1]; in vivo) was 88.4%. For the same molecule, the “Reproduction rate Pf/Pi” value ([1]; in vivo) was 6.5, the “Reproduction rate Pf/Pm” value ([1]; in vivo) was 4.5 and the “Reproduction rate Pm/Pi” value ([1]; in vivo) was 1.6. The “Plant growth: Yield (Bul/Acre)” value ([1]; soybean, 1998 field plots, 1200 g ai/acre) was 23.0 Bul/Acre, the “% J2 parasitizd, Midseason” value ([2]; in vivo) was 12.9a % and the “Eggs/100 cc soil, At harvest” value ([2]; in vivo) was 13,975b Eggs/100 cc soil. For the same molecule, the “Eggs/100 cc soil, Midseason” value ([2]; in vivo) was 1,166bc Eggs/100 cc soil, the “J2/100 cc soil, Midseason” value ([2]; in vivo) was 141bc and the “Yield bu/A” value ([2]; soybean, 2000 field plots, means of four replicates) was 55.5a bu/A.
With `Cc1ncc(CO)c(CO)c1O` [Pyridoxine (VB6)] the “Growth rate mm-in-diam, on agar” value ([3]; isolate ATCC46487) was 40.5 mm-in-diam, the “Growth rate mm-in-diam, on agar” value ([3]; isolate JA16-1) was 17.2 mm-in-diam and the “Growth rate mm-in-diam, on agar” value ([3]; isolate OWVT-1) was 29.5 mm-in-diam. The “Spore germination %, on agar” value ([3]; isolate ATCC46487) was 74.4%, the “Sporulation 10^3/cm^2, on agar” value ([3]; isolate ATCC46487) was 31.1 10^3/cm^2 and the “growth in liquit culture (visual rating)” value ([3]; isolate ATCC46487) was “III (III = hyphae growth or colonies form a pellet, less than 2.5 ml)”. For the same molecule, the “Spore germination %, on agar” value ([3]; isolate JA16-1) was 90.0%, the “Sporulation 10^3/cm^2, on agar” value ([3]; isolate JA16-1) was 16.5 10^3/cm^2 and the “growth in liquit culture (visual rating)” value ([3]; isolate JA16-1) was “I”. For the same molecule, the “Spore germination %, on agar” value ([3]; isolate OWVT-1) was 50.0% and the “Sporulation 10^3/cm^2, on agar” value ([3]; isolate OWVT-1) was 13.0 10^3/cm^2.
With `Cc1cc2nc3c(=O)[nH]c(=O)nc-3n(C[C@H](O)[C@H](O)[C@H](O)CO)c2cc1C` [Riboflavin, UPS (VB2)] the “Growth rate mm-in-diam, on agar” value ([3]; isolate ATCC46487) was 41.0 mm-in-diam, the “Growth rate mm-in-diam, on agar” value ([3]; isolate JA16-1) was 20.2 mm-in-diam and the “Growth rate mm-in-diam, on agar” value ([3]; isolate OWVT-1) was 30.2 mm-in-diam. The “Spore germination %, on agar” value ([3]; isolate ATCC46487) was 91.1%, the “Sporulation 10^3/cm^2, on agar” value ([3]; isolate ATCC46487) was 30.6 10^3/cm^2 and the “Spore germination %, on agar” value ([3]; isolate JA16-1) was 85.6%. For the same molecule, the “Sporulation 10^3/cm^2, on agar” value ([3]; isolate JA16-1) was 13.2 10^3/cm^2, the “growth in liquit culture (visual rating)” value ([3]; isolate JA16-1) was “I” and the “Spore germination %, on agar” value ([3]; isolate OWVT-1) was 60.0%. For the same molecule, the “Sporulation 10^3/cm^2, on agar” value ([3]; isolate OWVT-1) was 11.1 10^3/cm^2 and the “growth in liquit culture (visual rating)” value ([3]; isolate OWVT-1) was “I”.
With `Cc1ncc(C[n+]2csc(CCO)c2C)c(N)n1` [Thiamine (VB1)] the “Growth rate mm-in-diam, on agar” value ([3]; isolate ATCC46487) was 38.5 mm-in-diam, the “Growth rate mm-in-diam, on agar” value ([3]; isolate JA16-1) was 20.3 mm-in-diam and the “Growth rate mm-in-diam, on agar” value ([3]; isolate OWVT-1) was 24.7 mm-in-diam. For the same molecule, the “Spore germination %, on agar” value ([3]; isolate ATCC46487) was 75.6%, the “Sporulation 10^3/cm^2, on agar” value ([3]; isolate ATCC46487) was 30.1 10^3/cm^2 and the “Spore germination %, on agar” value ([3]; isolate JA16-1) was 91.1%. The “Sporulation 10^3/cm^2, on agar” value ([3]; isolate JA16-1) was 30.4 10^3/cm^2, the “Spore germination %, on agar” value ([3]; isolate OWVT-1) was 58.9% and the “Sporulation 10^3/cm^2, on agar” value ([3]; isolate OWVT-1) was 15.7 10^3/cm^2.
`O=C(O)CCCC[C@@H]1SC[C@@H]2NC(=O)N[C@@H]21` [d-Biotin (V.H)] was tested, and the “Growth rate mm-in-diam, on agar” value ([3]; isolate ATCC46487) was 39.7 mm-in-diam, the “Growth rate mm-in-diam, on agar” value ([3]; isolate JA16-1) was 16.3 mm-in-diam and the “Growth rate mm-in-diam, on agar” value ([3]; isolate OWVT-1) was 27.7 mm-in-diam. The “Spore germination %, on agar” value ([3]; isolate ATCC46487) was 80.0%, the “Sporulation 10^3/cm^2, on agar” value ([3]; isolate ATCC46487) was 29.5 10^3/cm^2 and the “Spore germination %, on agar” value ([3]; isolate JA16-1) was 90.0%. The “Sporulation 10^3/cm^2, on agar” value ([3]; isolate JA16-1) was 14.1 10^3/cm^2, the “growth in liquit culture (visual rating)” value ([3]; isolate JA16-1) was “I” and the “Spore germination %, on agar” value ([3]; isolate OWVT-1) was 50.0%. For the same molecule, the “Sporulation 10^3/cm^2, on agar” value ([3]; isolate OWVT-1) was 11.7 10^3/cm^2.
For `O[C@H]1[C@H](O)[C@@H](O)[C@H](O)[C@@H](O)[C@H]1O` [myo-inositol], the “Growth rate mm-in-diam, on agar” value ([3]; isolate ATCC46487) was 40.8 mm-in-diam, the “Growth rate mm-in-diam, on agar” value ([3]; isolate JA16-1) was 18.3 mm-in-diam and the “Growth rate mm-in-diam, on agar” value ([3]; isolate OWVT-1) was 31.5 mm-in-diam. The “Spore germination %, on agar” value ([3]; isolate ATCC46487) was 72.2%, the “Sporulation 10^3/cm^2, on agar” value ([3]; isolate ATCC46487) was 41.9 10^3/cm^2 and the “Spore germination %, on agar” value ([3]; isolate JA16-1) was 84.4%. The “Sporulation 10^3/cm^2, on agar” value ([3]; isolate JA16-1) was 16.7 10^3/cm^2, the “growth in liquit culture (visual rating)” value ([3]; isolate JA16-1) was “I” and the “Spore germination %, on agar” value ([3]; isolate OWVT-1) was 64.4%. The “Sporulation 10^3/cm^2, on agar” value ([3]; isolate OWVT-1) was 8.3 10^3/cm^2.
In the case of `Nc1ccc(C(=O)O)cc1` [p-Amino-benzoic acid (PABA)], the “Growth rate mm-in-diam, on agar” value ([3]; isolate ATCC46487) is reported as 41.5 mm-in-diam, the “Growth rate mm-in-diam, on agar” value ([3]; isolate JA16-1) is reported as 16.7 mm-in-diam and the “Growth rate mm-in-diam, on agar” value ([3]; isolate OWVT-1) is reported as 28.3 mm-in-diam. For the same molecule, the “Spore germination %, on agar” value ([3]; isolate ATCC46487) was 82.2%, the “Sporulation 10^3/cm^2, on agar” value ([3]; isolate ATCC46487) was 29.9 10^3/cm^2 and the “Spore germination %, on agar” value ([3]; isolate JA16-1) was 84.4%. The “Sporulation 10^3/cm^2, on agar” value ([3]; isolate JA16-1) was 35.1 10^3/cm^2, the “growth in liquit culture (visual rating)” value ([3]; isolate JA16-1) was “I” and the “Spore germination %, on agar” value ([3]; isolate OWVT-1) was 51.1%. For the same molecule, the “Sporulation 10^3/cm^2, on agar” value ([3]; isolate OWVT-1) was 14.2 10^3/cm^2.

Source: US7384629B2, “Biological control of nematodes with Hirsutella minnesotensis” (Regents of the University of Minnesota, priority 2000, dated 2008)
